Data reported in patent US11981658B2, “Substituted aminopyridine compounds as EGFR inhibitors” (YUHAN CORPORATION, priority 2021, dated 2024).
Read-outs that look alike come from different tables or passages of the source.

What was measured:
[1] = target: EGFR L858R/C797S (Homo sapiens, UniProt P00533, C797S/L858R); test: Biochemical EGFR kinase inhibition assay (Lance Ultra TR-FRET), double mutant L858R/C797S
In short: (§1)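 Kinase activity is measured by TR-FRET phosphopeptide detection. Compounds span 0.003 μM to 10 μM; the 1 h reaction at room temperature is quenched with EDTA, then labelled antibody (2 nM) is incubated 60 min before reading.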

[2] = target: EGFR Del19/C797S (Homo sapiens, UniProt P00533, C797S/DEL746-750); test: Biochemical EGFR kinase inhibition assay (Lance Ultra TR-FRET), double mutant del19/C797S
Chain of EGFR Del19/C797S (P00533 with tags, fused parts or gaps DEL746-750/C797S): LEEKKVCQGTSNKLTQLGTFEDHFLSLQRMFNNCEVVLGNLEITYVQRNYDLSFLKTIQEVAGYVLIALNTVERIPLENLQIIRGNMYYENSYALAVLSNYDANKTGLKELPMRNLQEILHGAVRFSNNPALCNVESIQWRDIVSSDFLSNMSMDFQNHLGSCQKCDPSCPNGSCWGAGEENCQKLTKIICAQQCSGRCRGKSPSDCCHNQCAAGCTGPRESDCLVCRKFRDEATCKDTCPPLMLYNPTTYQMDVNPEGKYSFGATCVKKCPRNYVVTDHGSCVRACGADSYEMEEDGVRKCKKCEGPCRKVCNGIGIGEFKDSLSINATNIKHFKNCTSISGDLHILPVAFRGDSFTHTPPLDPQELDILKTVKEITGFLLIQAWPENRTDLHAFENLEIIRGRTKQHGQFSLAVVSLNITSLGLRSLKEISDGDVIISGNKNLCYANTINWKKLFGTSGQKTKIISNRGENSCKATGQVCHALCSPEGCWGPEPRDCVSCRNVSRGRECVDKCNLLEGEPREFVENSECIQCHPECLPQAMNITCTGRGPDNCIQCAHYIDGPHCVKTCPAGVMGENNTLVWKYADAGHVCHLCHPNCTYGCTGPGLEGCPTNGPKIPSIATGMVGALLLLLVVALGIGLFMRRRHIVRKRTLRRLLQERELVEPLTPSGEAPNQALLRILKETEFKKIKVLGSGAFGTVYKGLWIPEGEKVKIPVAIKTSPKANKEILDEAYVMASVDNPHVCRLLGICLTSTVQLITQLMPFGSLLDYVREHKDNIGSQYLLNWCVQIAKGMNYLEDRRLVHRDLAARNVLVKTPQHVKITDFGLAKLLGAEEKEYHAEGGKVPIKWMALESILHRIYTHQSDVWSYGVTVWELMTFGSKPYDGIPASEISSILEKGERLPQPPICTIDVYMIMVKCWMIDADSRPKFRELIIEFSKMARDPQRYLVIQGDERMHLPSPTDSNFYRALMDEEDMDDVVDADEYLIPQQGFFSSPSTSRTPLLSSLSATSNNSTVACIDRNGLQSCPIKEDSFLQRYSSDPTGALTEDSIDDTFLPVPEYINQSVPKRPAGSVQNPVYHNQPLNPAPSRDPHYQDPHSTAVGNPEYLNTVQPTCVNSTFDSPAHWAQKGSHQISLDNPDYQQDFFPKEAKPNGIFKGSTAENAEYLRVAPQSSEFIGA
In short: as §1

[3] = target: EGFR wildtype (WT) (Homo sapiens, UniProt P00533); test: Biochemical EGFR kinase inhibition assay (Lance Ultra TR-FRET), wildtype
Chain of EGFR wildtype (WT) (P00533 25-1210): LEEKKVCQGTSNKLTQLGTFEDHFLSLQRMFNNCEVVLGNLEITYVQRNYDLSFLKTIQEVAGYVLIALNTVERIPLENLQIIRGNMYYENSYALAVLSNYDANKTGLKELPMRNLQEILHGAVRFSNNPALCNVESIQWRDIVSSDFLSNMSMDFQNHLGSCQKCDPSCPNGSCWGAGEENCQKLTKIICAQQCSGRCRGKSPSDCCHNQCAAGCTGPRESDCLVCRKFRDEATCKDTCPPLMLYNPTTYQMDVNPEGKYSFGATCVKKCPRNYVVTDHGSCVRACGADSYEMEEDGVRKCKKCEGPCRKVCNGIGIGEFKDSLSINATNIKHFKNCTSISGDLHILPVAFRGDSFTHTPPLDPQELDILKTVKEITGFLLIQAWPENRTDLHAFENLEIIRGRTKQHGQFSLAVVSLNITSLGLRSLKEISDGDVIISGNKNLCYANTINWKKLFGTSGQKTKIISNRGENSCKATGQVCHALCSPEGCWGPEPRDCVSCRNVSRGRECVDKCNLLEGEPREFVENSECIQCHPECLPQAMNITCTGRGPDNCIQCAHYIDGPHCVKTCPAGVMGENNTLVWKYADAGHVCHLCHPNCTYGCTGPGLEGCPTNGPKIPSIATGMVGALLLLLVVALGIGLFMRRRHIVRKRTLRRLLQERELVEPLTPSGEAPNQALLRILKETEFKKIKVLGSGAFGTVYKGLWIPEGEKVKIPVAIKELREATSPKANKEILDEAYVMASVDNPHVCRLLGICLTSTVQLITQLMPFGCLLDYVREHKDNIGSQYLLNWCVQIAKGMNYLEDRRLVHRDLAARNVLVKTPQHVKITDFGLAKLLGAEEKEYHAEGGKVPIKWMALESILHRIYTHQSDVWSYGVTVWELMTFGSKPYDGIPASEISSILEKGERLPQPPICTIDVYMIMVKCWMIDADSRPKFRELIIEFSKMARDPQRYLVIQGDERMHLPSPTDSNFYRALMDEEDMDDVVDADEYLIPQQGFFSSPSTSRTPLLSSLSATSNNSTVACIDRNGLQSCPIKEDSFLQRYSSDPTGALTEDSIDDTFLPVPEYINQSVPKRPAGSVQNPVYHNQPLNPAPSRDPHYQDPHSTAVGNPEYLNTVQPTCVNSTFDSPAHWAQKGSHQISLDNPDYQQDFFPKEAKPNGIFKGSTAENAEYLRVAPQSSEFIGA
In short: as §1

[4] = target: EGFR L858R/T790M/C797S (Homo sapiens, UniProt P00533, C797S/L858R/T790M); test: Biochemical EGFR kinase inhibition assay (Lance Ultra TR-FRET), triple mutant L858R/T790M/C797S
In short: as §1

[5] = target: EGFR Del19/T790M/C797S (Homo sapiens, UniProt P00533, C797S/DEL746-750/T790M); test: Biochemical EGFR kinase inhibition assay (Lance Ultra TR-FRET), triple mutant del19/T790M/C797S
Chain of EGFR Del19/T790M/C797S (P00533 with tags, fused parts or gaps DEL746-750/T790M/C797S): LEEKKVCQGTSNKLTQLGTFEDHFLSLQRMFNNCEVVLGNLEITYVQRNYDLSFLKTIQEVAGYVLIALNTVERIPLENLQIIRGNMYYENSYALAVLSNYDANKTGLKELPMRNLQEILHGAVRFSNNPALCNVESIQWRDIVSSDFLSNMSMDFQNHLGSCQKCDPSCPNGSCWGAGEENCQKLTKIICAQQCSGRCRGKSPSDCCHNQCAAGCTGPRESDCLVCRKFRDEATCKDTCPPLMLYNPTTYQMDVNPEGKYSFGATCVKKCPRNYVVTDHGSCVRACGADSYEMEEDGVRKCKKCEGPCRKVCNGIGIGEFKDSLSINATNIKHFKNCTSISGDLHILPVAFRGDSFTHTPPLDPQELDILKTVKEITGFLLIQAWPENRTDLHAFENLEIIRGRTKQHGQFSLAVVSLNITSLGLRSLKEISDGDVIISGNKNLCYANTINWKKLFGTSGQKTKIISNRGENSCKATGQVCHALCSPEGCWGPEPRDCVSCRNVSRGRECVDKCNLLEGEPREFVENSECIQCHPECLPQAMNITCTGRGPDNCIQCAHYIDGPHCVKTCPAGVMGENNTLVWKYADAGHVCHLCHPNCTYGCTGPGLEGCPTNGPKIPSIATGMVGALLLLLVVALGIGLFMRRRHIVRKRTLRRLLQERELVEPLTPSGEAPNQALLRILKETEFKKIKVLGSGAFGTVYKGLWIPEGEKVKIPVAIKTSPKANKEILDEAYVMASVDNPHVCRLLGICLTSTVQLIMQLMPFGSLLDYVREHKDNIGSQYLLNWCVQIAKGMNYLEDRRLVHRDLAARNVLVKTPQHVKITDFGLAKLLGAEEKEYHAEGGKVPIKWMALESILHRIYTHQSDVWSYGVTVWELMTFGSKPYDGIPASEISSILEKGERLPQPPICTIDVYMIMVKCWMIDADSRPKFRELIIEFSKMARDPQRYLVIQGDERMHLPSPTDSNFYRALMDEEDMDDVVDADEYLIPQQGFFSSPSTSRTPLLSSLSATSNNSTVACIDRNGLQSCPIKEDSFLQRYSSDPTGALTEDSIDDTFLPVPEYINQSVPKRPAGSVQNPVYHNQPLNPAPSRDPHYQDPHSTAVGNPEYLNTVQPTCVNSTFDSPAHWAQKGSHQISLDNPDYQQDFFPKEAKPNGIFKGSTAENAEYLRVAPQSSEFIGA
In short: as §1

[6] = IC50 L858R/C797S (nM), 100 μM ATP
[7] = Km ATP, read-out: IC50 L858R/C797S (nM), Km ATP
[8] = IC50 Del19/C797S (nM), 100 μM ATP
[9] = Km ATP, read-out: IC50 Del19/C797S (nM), Km ATP
[10] = Km ATP, read-out: IC50 WT (nM), Km ATP
[11] = IC50 L858R/T790M/C797S (nM), 100 μM ATP
[12] = Km ATP, read-out: IC50 L858R/T790M/C797S (nM), Km ATP
[13] = IC50 Del19/T790M/C797S (nM), 100 μM ATP
[14] = Km ATP, read-out: IC50 Del19/T790M/C797S (nM), Km ATP
[15] = ATP at Km, read-out: IC50 L858R/C797S (nM), Km ATP
[16] = ATP at Km, read-out: IC50 Del19/C797S (nM), Km ATP
[17] = ATP at Km, read-out: IC50 WT (nM), Km ATP
[18] = ATP at Km, read-out: IC50 Del19/T790M/C797S (nM), Km ATP
[19] = ATP at Km, read-out: IC50 L858R/T790M/C797S (nM), Km ATP

Chain of EGFR L858R/C797S (P00533 25-1210 C797S/L858R): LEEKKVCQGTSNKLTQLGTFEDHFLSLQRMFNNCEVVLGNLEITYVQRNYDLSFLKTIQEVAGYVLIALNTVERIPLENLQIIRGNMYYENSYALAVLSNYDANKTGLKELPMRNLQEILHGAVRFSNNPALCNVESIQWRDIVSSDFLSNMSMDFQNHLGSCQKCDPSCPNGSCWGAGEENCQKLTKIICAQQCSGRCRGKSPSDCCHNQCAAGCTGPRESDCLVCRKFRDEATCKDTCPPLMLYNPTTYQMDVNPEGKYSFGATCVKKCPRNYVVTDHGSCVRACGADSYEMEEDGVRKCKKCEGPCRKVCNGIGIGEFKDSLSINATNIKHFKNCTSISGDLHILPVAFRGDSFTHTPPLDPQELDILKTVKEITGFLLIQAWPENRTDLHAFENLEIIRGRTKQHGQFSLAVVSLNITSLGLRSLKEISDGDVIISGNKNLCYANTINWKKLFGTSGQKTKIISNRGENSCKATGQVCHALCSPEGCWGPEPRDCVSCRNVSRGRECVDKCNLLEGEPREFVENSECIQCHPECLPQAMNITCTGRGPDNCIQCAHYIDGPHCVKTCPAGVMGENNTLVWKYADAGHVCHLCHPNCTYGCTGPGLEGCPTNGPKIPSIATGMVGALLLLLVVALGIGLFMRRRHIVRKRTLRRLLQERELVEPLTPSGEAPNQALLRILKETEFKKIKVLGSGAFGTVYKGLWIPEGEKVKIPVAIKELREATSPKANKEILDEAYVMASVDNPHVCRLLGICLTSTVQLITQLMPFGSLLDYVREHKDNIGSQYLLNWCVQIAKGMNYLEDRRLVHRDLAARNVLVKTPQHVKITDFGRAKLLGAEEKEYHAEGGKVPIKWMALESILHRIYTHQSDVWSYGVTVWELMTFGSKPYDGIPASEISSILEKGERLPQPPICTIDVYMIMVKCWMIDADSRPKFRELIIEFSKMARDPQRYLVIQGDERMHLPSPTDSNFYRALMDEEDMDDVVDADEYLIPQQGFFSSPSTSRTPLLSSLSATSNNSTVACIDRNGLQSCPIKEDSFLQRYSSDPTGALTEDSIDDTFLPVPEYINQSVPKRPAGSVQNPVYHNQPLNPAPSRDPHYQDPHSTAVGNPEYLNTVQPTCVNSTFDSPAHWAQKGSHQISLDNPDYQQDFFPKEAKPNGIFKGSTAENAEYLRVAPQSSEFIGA

| IC50 [1, 6] [nM] | IC50 [2, 8] [nM] | IC50 ([3]; IC50 WT (nM), 100 μM ATP) [nM] | IC50 [4, 11] [nM] | IC50 [5, 13] [nM] | IC50 [1, 15] [nM] | IC50 [2, 16] [nM] | IC50 [3, 17] [nM] | IC50 [5, 18] [nM] | IC50 [4, 19] [nM] | other results | SMILES |
| --- | --- | --- | --- | --- | --- | --- | --- | --- | --- | --- | --- |
| 28.5 | 1.9 | > 10000 | 0.2 | 0.5 |  |  |  |  |  | IC50 [1, 7]: 4.9 nM; IC50 [2, 9]: 4 nM; IC50 [3, 10]: 18.6 nM; IC50 [4, 12]: 0.1 nM; IC50 [5, 14]: 0.1 nM | O=S1(=O)CCC(C#Cc2cnc(Nc3ccnc(-c4cnn(S(=O)(=O)C5CC5)c4)n3)cc2NC2CCC(CO)CC2)C1 (stereo not drawn) [Example 428, 3-((6-((2-(1-(Cyclopropylsulfonyl)-1H-pyrazol-4-yl)pyrimidin-4-yl)amino)-4-(((1s,4s)-4-(hydroxymethyl)cyclohexyl)amino)pyridin-3-yl)ethynyl)tetrahydrothiophene 1,1-dioxide] |
| 287 | 88.5 | > 10000 | 22 | 82.1 | 6.3 | 17 | 192 | 10.2 |  |  | COC1(C)CCN(c2cc(Nc3ccnc(-c4cnn(S(=O)(=O)C5CC5)c4)n3)ncc2C#Cc2cccnc2)CC1 [Example 281, 2-(1-(Cyclopropylsulfonyl)-1H-pyrazol-4-yl)-N-(4-(4-methoxy-4-methylpiperidin-1-yl)-5-(pyridin-3-ylethynyl)pyridin-2-yl)pyrimidin-4-amine] |
|  |  |  |  |  | 92.7 | 43.4 | 312 | 2.2 | 1.6 |  | CC(C)Nc1cc(Nc2ccnc(-c3cnn(S(=O)(=O)C4CC4)c3)n2)ncc1C#CCN1CCOCC1 [Example 202, N^2-(2-(1-(Cyclopropylsulfonyl)-1H-pyrazol-4-yl)pyrimidin-4-yl)-N^4-isopropyl-5-(3-morpholinoprop-1-yn-1-yl)pyridine-2,4-diamine] |
| 198 | 97.4 | > 10000 | 1.5 | 2.9 | 16.6 | 35.8 | 46.1 | 5.6 | 0.3 |  | CN(C)S(=O)(=O)n1cc(-c2nccc(Nc3cc(N4CCC(C)(CO)CC4)c(C#Cc4cnn(C(F)(F)F)c4)cn3)n2)cn1 [Example 273, 4-(4-((4-(4-(Hydroxymethyl)-4-methylpiperidin-1-yl)-5-((1-(trifluoromethyl)-1H-pyrazol-4-yl)ethynyl)pyridin-2-yl)amino)pyrimidin-2-yl)-N, N-dimethyl-1H-pyrazole-1-sulfonamide] |
| 40.6 | 3 | > 10000 | 5.2 | 2.6 |  |  |  |  |  | IC50 ([1]; Km ATP, read-out: IC50 L858R/C797S (nM) Km ATP): 4.1 nM; IC50 ([2]; Km ATP, read-out: IC50 Del19/C797S (nM) Km ATP): 1.6 nM; IC50 ([3]; Km ATP, read-out: IC50 WT (nM) Km ATP): 28.7 nM; IC50 ([4]; Km ATP, read-out: IC50 L858R/T790M/C797S (nM) Km ATP): 0.6 nM; IC50 ([5]; Km ATP, read-out: IC50 Del19/T790M/C797S (nM) Km ATP): 0.7 nM | Cn1cc(C#Cc2cnc(Nc3ccnc(-c4cnn(S(=O)(=O)C5CC5)c4)n3)cc2N2CCC(NCC(F)(F)F)CC2)cn1 [Example 135, 2-(1-(Cyclopropylsulfonyl)-1H-pyrazol-4-yl)-N-(5-((1-methyl-1H-pyrazol-4-yl)ethynyl)-4-(4-((2,2,2-trifluoroethyl)amino)piperidin-1-yl)pyridin-2-yl)pyrimidin-4-amine] |
| 7.6 | 1.4 | 1790 | 0.4 | 0.3 |  |  |  |  |  | IC50 [1, 7]: 0.9 nM; IC50 [2, 9]: 0.9 nM; IC50 [3, 10]: 3 nM; IC50 [4, 12]: 0.1 nM; IC50 [5, 14]: 0.1 nM | CN(C)CCC1CCCN(c2cc(Nc3ccnc(-c4cnn(S(=O)(=O)C5CC5)c4)n3)ncc2C#Cc2cnn(CCF)c2)C1 (stereo not drawn) [Example 386, 2-(1-(Cyclopropylsulfonyl)-1H-pyrazol-4-yl)-N-(4-(3-(2-(dimethylamino)ethyl)piperidin-1-yl)-5-((1-(2-fluoroethyl)-1H-pyrazol-4-yl)ethynyl)pyridin-2-yl)pyrimidin-4-amine] |
|  |  |  |  |  | 21.9 | 66.5 | 411 | 1.4 | 0.9 | IC50 ([1]; read-out: IC50 L858R/C797S (nM), 100 μM ATP): 194 nM; IC50 ([2]; read-out: IC50 Del19/C797S (nM), 100 μM ATP): 51.1 nM; IC50 ([3]; read-out: IC50 WT (nM), 100 μM ATP): > 10000 nM; IC50 ([4]; read-out: IC50 L858R/T790M/C797S (nM), 100 μM ATP): 3.8 nM; IC50 ([5]; read-out: IC50 Del19/T790M/C797S (nM), 100 μM ATP): 1.9 nM | C[C@]1(O)CC[C@@H](Nc2cc(Nc3ccnc(-c4cnn(S(=O)(=O)C5CC5)c4)n3)ncc2C#CCN2CCOCC2)CC1 [Example 166, (1s,4s)-4-((2-((2-(1-(Cyclopropylsulfonyl)-1H-pyrazol-4-yl)pyrimidin-4-yl)amino)-5-(3-morpholinoprop-1-yn-1-yl)pyridin-4-yl)amino)-1-methylcyclohexan-1-ol] |
| 278 | 49.1 | > 10000 | 13.1 | 4.8 |  |  |  |  |  |  | CC(C)(CO)CNc1cc(Nc2ccnc(-c3cnn(S(=O)(=O)C4CC4)c3)n2)ncc1C#Cc1cnn(CCF)c1 [Example 40, 3-((2-((2-(1-Cyclopropylsulfonylpyrazol-4-yl)pyrimidin-4-yl)amino)-5-(2-(1-(2-fluoroethyl)pyrazol-4-yl)ethynyl)-4-pyridyl)amino)-2,2-dimethyl-propan-1-ol] |
| 6.8 | 4.6 | > 10000 | 3.9 | 1.6 | 4.3 | 3.4 | 14.6 | 1 | 0.4 |  | O=S(=O)(C1CC1)n1cc(-c2nccc(Nc3cc(NC[C@H]4CC[C@@H](O)C4)c(C#Cc4cnn(C(F)F)c4)cn3)n2)cn1 [Example 306, (1R,3S)-3-(((2-((2-(1-(Cyclopropylsulfonyl)-1H-pyrazol-4-yl)pyrimidin-4-yl)amino)-5-((1-(difluoromethyl)-1H-pyrazol-4-yl)ethynyl)pyridin-4-yl)amino)methyl)cyclopentan-1-ol] |
| 1550 | 34.6 | > 10000 | 10.6 | 4.1 |  |  |  |  |  | IC50 [1, 7]: 52.2 nM; IC50 [2, 9]: 20.3 nM; IC50 [3, 10]: 132 nM; IC50 [4, 12]: 1.2 nM; IC50 [5, 14]: 3 nM | CC1(O)CCC(CNc2cc(Nc3ccnc(-c4cnn(S(=O)(=O)C5CC5)c4)n3)ncc2C#CC2CCCO2)CC1 (stereo not drawn) [Example 377, (1 r,4r)-4-(((2-((2-(1-(Cyclopropylsulfonyl)-1H-pyrazol-4-yl)pyrimidin-4-yl)amino)-5-((tetrahydrofuran-2-yl)ethynyl)pyridin-4-yl)amino)methyl)-1-methylcyclohexan-1-ol] |
| 619 | 58.4 | > 10000 | 26.3 | 22.9 | 39.9 | 44.8 | 540 | 27.6 | 12.2 |  | CC(C)(O)[C@H]1CC[C@@H](Nc2cc(Nc3ccnc(-c4cnn(S(=O)(=O)C5CC5)c4)n3)ncc2C#Cc2ccc(CN3CCOCC3)cc2)CC1 [Example 162, 2-((1s,4s)-4-((2-((2-(1-(Cyclopropylsulfonyl)-1H-pyrazol-4-yl)pyrimidin-4-yl)amino)-5-((4-(morpholinomethyl)phenyl)ethynyl)pyridin-4-yl)amino)cyclohexyl)propan-2-ol] |
